Measured values from patent US12673041B2, “4-aminobut-2-enamide derivatives and salt thereof” (TAIHO PHARMACEUTICAL CO., LTD., priority 2019, dated 2026).

How the values were obtained:
[1] = target: Gppcp-bound recombinant K-Ras4B G12C mutant protein (amino acids 1-169, C51S/C80L/C118S) (Homo sapiens, UniProt P01116, C118S/C51S/C80L/G12C); assay: KRASG12C binding assay (LC-MS compound binding rate); settings: test compound final concentration 0.5 μM, 25° C., 1 hour
Procedure: As test compounds for the KRASG12C binding assay, the compounds obtained in the “Preparation of Compounds” section were used. Sample solutions each containing a test compound were prepared in the form of a 10 mM DMSO solution.
Gppcp-bound recombinant K-Ras4B G12C mutant protein (amino acids 1-169, C51S/C80L/C118S, SEQ ID NO:1) was diluted with a buffer (1×TBS, 0.1 mM TCEP, 0.25 mM MgCl2, 50 μM Gppcp) to prepare a 50 nM protein solution. K-Ras4B is the major splicing variant of K-Ras. Amino acid sequence of residues 1 to 150 including the compounds' binding region of K-Ras4B is exactly same as that of K-Ras4A, the other splicing variant (Oncotarget. 2016 Jul. 19; 7(29): 46717-46733). A sample solution containing 10 mM test compound was diluted ten-fold with DMSO to make a 1 mM sample solution, and then diluted twenty-fold with DMSO to make a 50 μM sample solution. 1 μL of a 50 μM sample solution was added to 100 μL of a 50 nM protein solution to adjust the final concentration of a test compound to be 0.5 μM in the mixture. The mixtures were stored in an incubator at 25° C. for 1 hour, and 10 μL of a 1×TBS solution containing 2% formic acid was added to stop the reaction, followed by LC-MS measurement. LC-MS measurement was performed using Xevo G2-S Q-Tof manufactured by Waters, and reverse-phase chromatography was performed with a desalting column. A mass spectrum of positive ions was obtained by electrospray. For a mass spectrum, a spectrum of polyvalent ions was collectively converted to a molecular weight by using OpenLynx software by the MaxEnt technique, and a compound binding rate was calculated from the ratio of the signal intensity of a peak that corresponds to the molecular weight of the protein to the signal intensity of a peak that corresponds to the molecular weight of the protein conjugated with the compound.
The binding assay of the test compounds was conducted at a final concentration of 0.5 μM. A binding rate of 80% or more is rated “A”, a binding rate of 60% or more and less than 80% is rated “B”, a binding rate of 40% or more and less than 60% is rated “C”, a binding rate of 20% or more and less than 40% is rated “D”, and a binding rate of less than 20% is rated “E”. N.D.=not determined. Binding rate % is the ratio of KRAS signal intensity at the molecular weight of one molecule adduct to the sum of all the KRAS signal intensity (unbound form and adducts) in mass spectrum.
Thus, binding rate 100% means that only the one molecule adduct was observed without any unbound KRAS.

[2] = target: T1, GMPPNP-bound KRAS G12C protein and cRAF RAS-binding domain (cRAF-RBD) (Homo sapiens, UniProt P01116, G12C); assay: Inhibitory activity on interaction between KRAS G12C and cRAF (Alpha technology); assay type: biochemical; settings: GMPPNP-bound KRAS G12C incubated with compound at 25° C. for 1 hour, then cRAF-RBD, Alpha signal; read-out: IC50
T1 construct: made in house; host or cells: E. coli
Procedure: Interaction between recombinant K-Ras4B G12C mutant protein (amino acids 1-169, SEQ ID NO:2) and cRAF RAS-binding domain (cRAF-RBD, amino acids 50-132, Jena Biosciences GmbH) was measured using Alpha technology (PerkinElmer Inc.).
Recombinant KRAS G12C protein with an N-terminal His-tag was expressed in E. coli and purified by affinity chromatography. To prepare GTP-bound form and GDP-bound form of KRAS G12C protein, 50 μM KRAS G12C protein was incubated with 1 mM GMPPNP (Guanosine-5′-[(β,γ)-imido]triphosphate, Tetralithium salt) (Jena Bioscience GmbH) and 1 mM GDP, respectively, in a loading buffer (20 mM Tris-HCl (pH 7.5), 50 mM NaCl, 1 mM DTT and 2.5 mM EDTA) for 1 hour on ice. After the incubation, MgCl2 was added to a final concentration of 10 mM, followed by incubation at room temperature for 30 minutes. The mixture was allowed to pass through a NAP-5 column to remove free nucleotides and purified, and the resultant nucleotide-bound KRAS G12C protein was used for compound evaluation.
For the measurement of the inhibitory activity of compounds on interaction between KRAS G12C and cRAF-RBD, GMPPNP-bound KRAS G12C protein was incubated with various concentrations of compound in a reaction buffer (20 mM Tris-HCl (pH 7.5), 100 mM NaCl, 1 mM MgCl2, 1 mM TCEP, 0.1% Tween 20) at 25° C. for 1 hour. After the incubation, recombinant cRAF-RBD and Alpha detection reagents were added and incubated at room temperature for 1.5 hours for binding. Interaction 5 of KRAS G12C and cRAF-RBD was monitored by measuring Alpha signal. Inhibition % was calculated using the signal from the reaction without test compound (DMSO control) as 0% inhibition and the signal from the reaction using GDP-bound KRAS G12C in place of GMPPNP-bound KRAS G12C as 100% inhibition. IC50 values were calculated from dose titration curve using curve fitting by XLfit software (IDBS).

| IC50 [2] [nM] | Structure (SMILES) | binding rate [1] |
| --- | --- | --- |
| 560 | CO[C@H]1CC[C@H](NC/C=C/C(=O)Nc2ccc(C(=O)c3c[nH]c4c(-c5cc6ncn(C)c6cc5C(F)(F)F)cc(Cl)cc34)cc2C#N)CC1 [Example 47, (E)-N-(4-(5-chloro-7-(1-methyl-6-(trifluoromethyl)-1H-benzo[d]imidazol-5-yl)-1H-indole-3-carbonyl)-2-cyanophenyl)-4-(((1r,4r)-4-methoxycyclohexyl)amino)but-2-enamide] | A (A binding rate of 80% or more is rated “A”) |
| > 6700 | CO[C@H]1CC[C@H](NC/C=C/C(=O)NC2CCN(C(=O)c3ccc4c(-c5cc6ncn(C)c6cc5C)cccn34)CC2)CC1 [Example 48, (2E)-N-{1-[8-(1,6-dimethyl-1H-1,3-benzodiazol-5-yl)indolizine-3-carbonyl]piperidin-4-yl}-4-{[trans-4-methoxycyclohexyl]amino}but-2-enamide] | E (a binding rate of less than 20% is rated “E”) |
| 1200 | Cc1cc(C(=O)c2ccc3c(-c4cc5ncn(C)c5cc4C(F)(F)F)cccn23)cc(C#N)c1NC(=O)/C=C/CNC(C)(C)C [Example 50, (2E)-4-(tert-Butylamino)-N-(2-cyano-6-methyl-4-{8-[1-methyl-6-(trifluoromethyl)-1H-1,3-benzodiazol-5-yl]indolizine-3-carbonyl}phenyl)but-2-enamide] | E (a binding rate of less than 20% is rated “E”) |
| 260 | Cn1cc2c(Cl)c(-c3cccn4c(C(=O)c5ccc(NC(=O)/C=C/CNC(C)(C)C)c(C#N)c5)ccc34)ccc2n1 [Example 52, (2E)-4-(tert-Butylamino)-N-{4-[8-(4-chloro-2-methyl-2H-indazol-5-yl)indolizine-3-carbonyl]-2-cyanophenyl}but-2-enamide] | B (a binding rate of 60% or more and less than 80% is rated “B”) |
| 180 | Cc1cc2c(cnn2C)cc1-c1cccn2c(C(=O)c3ccc(NC(=O)/C=C/CNC(C)(C)C)c(C#N)c3)ccc12 [Example 54, (2E)-4-(tert-Butylamino)-N-{2-cyano-4-[8-(1,6-dimethyl-1H-indazol-5-yl)indolizine-3-carbonyl]phenyl}but-2-enamide] | A (A binding rate of 80% or more is rated “A”) |
| 240 | CO[C@H]1CC[C@H](NC/C=C/C(=O)Nc2ccc(C(=O)c3nn(C)c4c(-c5cc6ncn(C)c6cc5C)cccc34)cc2C#N)CC1 [Example 58, (E)-N-(2-cyano-4-(7-(1,6-dimethyl-1H-benzo[d]imidazol-5-yl)-1-methyl-1H-indazole-3-carbonyl)phenyl)-4-(((1r,4r)-4-methoxycyclohexyl)amino)but-2-enamide] | B (a binding rate of 60% or more and less than 80% is rated “B”) |
| 140 | CO[C@H]1CC[C@H](NC/C=C/C(=O)Nc2ccc(C(=O)c3cc(Cl)c4c(-c5cc6ncn(C)c6cc5C)cccn34)cc2C#N)CC1 [Example 65, (E)-N-(4-(1-chloro-8-(1,6-dimethyl-1H-benzo[d]imidazol-5-yl)indolizine-3-carbonyl)-2-cyanophenyl)-4-(((1r,4r)-4-methoxycyclohexyl)amino)but-2-enamide] | B (a binding rate of 60% or more and less than 80% is rated “B”) |
| 170 | CO[C@H]1CC[C@H](NC/C=C/C(=O)Nc2ccc(C(=O)c3ccc4c(-c5c(Cl)ncn5C(C)C)cccn34)cc2C#N)CC1 [Example 74, (E)-N-(4-(8-(4-chloro-1-isopropyl-1H-imidazol-5-yl)indolizine-3-carbonyl)-2-cyanophenyl)-4-(((1r,4r)-4-methoxycyclohexyl)amino)but-2-enamide] | B (a binding rate of 60% or more and less than 80% is rated “B”) |

Continued, compound first:

| Structure (SMILES) | IC50 [2] [nM] | binding rate [1] |
| --- | --- | --- |
| Cc1ccc2c(cnn2C)c1-c1cccn2c(C(=O)c3ccc(NC(=O)/C=C/CNC(C)(C)C)c(C#N)c3)ccc12 [Example 53, (2E)-4-(tert-Butylamino)-N-{2-cyano-4-[8-(1,5-dimethyl-1H-indazol-4-yl)indolizine-3-carbonyl]phenyl}but-2-enamide] | 150 | A (A binding rate of 80% or more is rated “A”) |
| CO[C@H]1CC[C@H](NC/C=C/C(=O)Nc2ccc(C(=O)c3ncc4c(-c5cc6ncn(C)c6cc5C)cccn34)cc2C#N)CC1 [Example 57, (E)-N-(2-cyano-4-(8-(1,6-dimethyl-1H-benzo[d]imidazol-5-yl)imidazo[1,5-a]pyridine-3-carbonyl)phenyl)-4-(((1r,4r)-4-methoxycyclohexyl)amino)but-2-enamide] | 160 | C (a binding rate of 40% or more and less than 60% is rated “C”) |
| C=C(C)c1c(-c2cccn3c(C(=O)c4ccc(NC(=O)/C=C/CNC(C)(C)C)c(C#N)c4)ccc23)c(C)cc2c1ncn2C [Example 61, (E)-4-(tert-butylamino)-N-(2-cyano-4-(8-(1,6-dimethyl-4-(prop-1-en-2-yl)-1H-benzo[d]imidazol-5-yl)indolizine-3-carbonyl)phenyl)but-2-enamide] | 230 | A (A binding rate of 80% or more is rated “A”) |
| CO[C@H]1CC[C@H](NC/C=C/C(=O)Nc2ccc(C(=O)c3ccc4c(-c5c(C)cc6c(ncn6C)c5-c5cncnc5)cccn34)cc2C#N)CC1 [Example 69, (E)-N-(2-cyano-4-(8-(1,6-dimethyl-4-(pyrimidin-5-yl)-1H-benzo[d]imidazol-5-yl)indolizine-3-carbonyl)phenyl)-4-(((1r,4r)-4-methoxycyclohexyl)amino)but-2-enamide] | 260 | B (a binding rate of 60% or more and less than 80% is rated “B”) |
| CO[C@H]1CC[C@H](NC/C=C/C(=O)Nc2ccc(C(=O)c3ccc4c(-c5ccc6nn(C)cc6c5Cl)cccn34)cc2C#N)CC1 [Example 71, (E)-N-(4-(8-(4-chloro-2-methyl-2H-indazol-5-yl)indolizine-3-carbonyl)-2-cyanophenyl)-4-(((1r,4r)-4-methoxycyclohexyl)amino)but-2-enamide] | 140 | A (A binding rate of 80% or more is rated “A”) |
| CO[C@H]1CC[C@H](NC/C=C/C(=O)Nc2ccc(C(=O)c3ccc4c(-c5cc6nn(C)cc6cc5C)cccn34)cc2C#N)CC1 [Example 75, (E)-N-(2-cyano-4-(8-(2,5-dimethyl-2H-indazol-6-yl)indolizine-3-carbonyl)phenyl)-4-(((1r,4r)-4-methoxycyclohexyl)amino)but-2-enamide] | 150 | A (A binding rate of 80% or more is rated “A”) |
